Publication PMC11388281, “Prevotella are major contributors of sialidases in the human vaginal microbiome” (Proceedings of the National Academy of Sciences of the …, 2024)

How the values were obtained:
Assay in all cases: fluorescence sialidase assay with 4-MU-Neu5Ac
Type in all cases: biochemical
PbNanH = molecular target: T1, PbNanH (Prevotella bivia, UniProt I4ZBT3); details: 100 µM 4-MU-Neu5Ac, 5 nM enzyme, sodium acetate pH 5.5, 37 °C
T1 construct: gene PrebiDRAFT_2006; full-length gene in pET28a, N-terminal His6 tag, E. coli BL21(DE3)
Text: fluorescence sialidase assay with 4-MU-Neu5Ac on PbNanH | All enzymes were inhibited by the well-characterized, broad-spectrum sialidase inhibitor, Neu5ac2en

PtNanH2 = molecular target: T2, PtNanH2 (Hoylesella timonensis, UniProt D1VWZ8)
T2 construct: gene HMPREF9019_0332; full-length gene in pET28a, N-terminal His6 tag, E. coli BL21(DE3); 1,030 amino acids incl. predicted signal peptide

PdNanH = molecular target: T3, PdNanH (Prevotella denticola, UniProt F0H7U2); details: 100 µM 4-MU-Neu5Ac, 5 nM enzyme, sodium acetate pH 5.5, 37 °C
T3 construct: gene HMPREF9303_0049; full-length gene in pET28a, N-terminal His6 tag, E. coli BL21(DE3); predicted signal peptide
Text: fluorescence sialidase assay with 4-MU-Neu5Ac on PdNanH | All enzymes were inhibited by the well-characterized, broad-spectrum sialidase inhibitor, Neu5ac2en

GvNanH3 = molecular target: T4, GvNanH3 (Gardnerella vaginalis, UniProt S4HLQ0)
T4 construct: full-length gene in pET28a, N-terminal His6 tag, E. coli BL21(DE3)
Text: fluorescence sialidase assay with 4-MU-Neu5Ac on GvNanH3 | All enzymes were inhibited by the well-characterized, broad-spectrum sialidase inhibitor, Neu5ac2en

PtNanH1 = molecular target: T5, PtNanH1 (Hoylesella timonensis, UniProt D1VY87)
T5 construct: gene HMPREF9019_1088; full-length gene in pET28a, N-terminal His6 tag, E. coli BL21(DE3); 413 amino acids incl. predicted signal peptide

Structure (SMILES)	IC50 (PbNanH)	IC50 (PtNanH2)	IC50 (PdNanH)	IC50 (GvNanH3)	IC50 (PtNanH1)
CC(=O)N[C@H]1[C@H]([C@H](O)[C@H](O)CO)OC(C(=O)O)=C[C@@H]1O [Neu5Ac2en]	103 ± 20.3 µM	56 ± 23 µM	50.5 ± 22.5 µM	29 ± 5.6 µM	180 ± 92.3 µM
CC(=O)N[C@H]1[C@H]([C@H](O)[C@H](O)CO)OC(C(=O)O)=C[C@@H]1N=C(N)N [Zanamivir]		33.6 ± 15.5 µM			
